Data published in patent US20230364084A1, “METHODS FOR PREVENTING OR TREATING CONDITIONS RELATED TO PIKFYVE ACTIVITY” (The Regents of the University of Michigan, priority 2020, published 2023).

Tests used:
[1] = tested on: castration-resistant VCaP tumors; test: castration-resistant VCaP xenograft mouse model; format: in vivo; settings: 30 or 60 mg/kg
Procedure: Four- to six-week old male CB17 severe combined immunodeficiency (SCID) mice were procured from the University of Michigan breeding colony. Subcutaneous tumors were established at both sides of the dorsal flank of mice. Tumors were measured at least biweekly using digital calipers following the formula (π/6) (L×W2), where L=length and W=width of the tumor. At the end of the studies, mice were sacrificed and tumors extracted and weighed. The University of Michigan University Committee on the Use and Care of Animals (UCUCA) approved all in vivo studies. For the VCaP castration-resistant tumor model, 3×10^6 VCaP cells were injected subcutaneously into the dorsal flank on both sides of the mice in serum-free medium with 50% Matrigel (BD Biosciences). Once tumors reached a palpable stage (˜200 mm^3), tumor-bearing mice were castrated. Once tumors grew back to the pre-castration size, mice were randomized and treated with either 30 mg/kg, 60 mg/kg ESK981, or vehicle (ORA-PLUS) by oral gavage 5 days per week. For the DU145 xenograft tumor model, 1×10^6 DU145 cells were injected subcutaneously into the dorsal flank on both sides of the mice in serum-free medium with 50% Matrigel. When tumors reached ˜100 mm^3, tumor-bearing mice were randomized and treated with 30 mg/kg ESK981 or vehicle (ORA-PLUS) by oral gavage 5 days per week.

VCaP cells = test: human cytokine array of conditioned medium; format: cell-based; settings: VCaP conditioned media, 300 nM, 24 hours
Procedure: Cells were seeded in 6-well plates, and conditioned medium was collected after 24 hours of drug incubation. Cytokine expression was determined by proteome profiler mouse XL cytokine array (Cat No. ARY028, R&D System) or proteome profiler human XL cytokine array kit (Cat No. ARY022, R&D System) according to the manufacturer's instructions.

[2] = tested on: CXCL10 in VCaP, PC3 and DU145 cells; test: CXCL10 mRNA by qPCR in the presence of IFNγ; format: cell-based, human; settings: PC3 and DU145, 24 hours
Procedure: Total RNA was extracted from cells or tissue using the miRNeasy mini kit (Qiagen), and cDNA was synthesized from 1 μg total RNA using the High Capacity cDNA Reverse Transcription Kit (Applied Biosystems). qPCR was performed using Fast SYBR Green Master Mix (Applied Biosystems) on the ViiA7 Real-Time PCR System (Applied Biosystems). The target mRNA expression was quantified using the ΔΔCt method and normalized to GAPDH expression. The primer sequences used for the SYBR green qPCR are as follows: […]

Myc-CaP tumors = test: Myc-CaP syngeneic murine prostate model in FVB mice; format: in vivo, mouse
Procedure: MYC-driven murine prostate cancer cells (Myc-CaP) were injected at a density of 1×10^6 subcutaneously into both flanks of 4- to 6-week old FVB mice (Charles River Laboratories) in serum-free medium with 50% Matrigel. When tumors reached ˜50 mm^3, tumor-bearing mice were randomized and treated with 15 mg/kg or 30 mg/kg ESK981 or vehicle (ORA-PLUS) by oral gavage 5 days per week. For the ESK981 and anti-PD-1 combination study, 15 mg/kg ESK981 or vehicle were given 5 days per week by oral gavage, while anti-PD-1 (Cat No. BE0146, BioXcell) or isotype control (Cat No. BE0089, BioXcell) were given at 200 μg per mouse 3 times per week by intraperitoneal injection (i.p.). For the ESK981 and anti-CXCR3 combination study, 15 mg/kg ESK981 or vehicle were given 5 days per week by oral gavage, while anti-CXCR3 (Cat No. BE0249, BioXcell) or isotype control (Cat No. BE0091, BioXcell) were given at 100 μg per mouse 3 times per week by i.p. For the shPikfyve study, Myc-CaP shPikfyve cells were injected at a density of 2×10^6 subcutaneously into both flanks of 4- to 6-week old NSG or FVB mice in serum-free medium with 50% Matrigel. When tumors reached 100 mm^3, tumor-bearing mice were randomized and treated with normal diet or doxycycline 625 mg/kg diet (Envigo). For the shPikfyve and anti-PD-1 combination study, Myc-CaP shPikfyve cells were injected at a density of 2×10^6 subcutaneously into both flanks of 4- to 6-week old FVB mice in serum-free medium with 50% Matrigel. When tumors reached 100 mm^3, tumor-bearing mice were randomized and treated with normal diet or doxycycline 625 mg/kg diet for 7 days, and then anti-PD-1 or isotype control were given at 200 μg per mouse 3 times per week in combination with normal or doxycycline diet.

PIK3CA = biological target: T1, PIK3CA (Homo sapiens, UniProt P42336); test: kinase dissociation constant analysis (KdELECT); format: binding; settings: 11-point dose-response, duplicate
T1 construct: purchased DiscoveRX (KdELECT)
Procedure: (§1) Quantitative binding constants (Kd) of ESK981 to PIKfyve, PIP5K1A, PIP5K1C, and PIK3CA were generated using KdELECT® platform (DiscoveRX). An 11-point dose-response of ESK981 (0.05-3000 nM) was used, and the experiment was performed in duplicate. Detailed information is described on the DiscoveRX website (www.discoverx.com).

PIP5K1A = biological target: T2, PIP5K1A (Homo sapiens, UniProt Q99755); test: kinase dissociation constant analysis (KdELECT); format: binding; settings: 11-point dose-response, duplicate
T2 construct: purchased DiscoveRX (KdELECT)
Procedure: as §1

PIP5K1C = biological target: T3, PIP5K1C (Homo sapiens, UniProt O60331); test: kinase dissociation constant analysis (KdELECT); format: binding; settings: 11-point dose-response, duplicate
T3 construct: purchased DiscoveRX (KdELECT)
Procedure: as §1

VEGFR-2 (KDR) = VEGFR-2 (KDR) (Homo sapiens, UniProt P35968); settings: cited from earlier work
[3] = 15 mg/kg solo treatment, four weeks

T1 sequence (P42336 whole entry): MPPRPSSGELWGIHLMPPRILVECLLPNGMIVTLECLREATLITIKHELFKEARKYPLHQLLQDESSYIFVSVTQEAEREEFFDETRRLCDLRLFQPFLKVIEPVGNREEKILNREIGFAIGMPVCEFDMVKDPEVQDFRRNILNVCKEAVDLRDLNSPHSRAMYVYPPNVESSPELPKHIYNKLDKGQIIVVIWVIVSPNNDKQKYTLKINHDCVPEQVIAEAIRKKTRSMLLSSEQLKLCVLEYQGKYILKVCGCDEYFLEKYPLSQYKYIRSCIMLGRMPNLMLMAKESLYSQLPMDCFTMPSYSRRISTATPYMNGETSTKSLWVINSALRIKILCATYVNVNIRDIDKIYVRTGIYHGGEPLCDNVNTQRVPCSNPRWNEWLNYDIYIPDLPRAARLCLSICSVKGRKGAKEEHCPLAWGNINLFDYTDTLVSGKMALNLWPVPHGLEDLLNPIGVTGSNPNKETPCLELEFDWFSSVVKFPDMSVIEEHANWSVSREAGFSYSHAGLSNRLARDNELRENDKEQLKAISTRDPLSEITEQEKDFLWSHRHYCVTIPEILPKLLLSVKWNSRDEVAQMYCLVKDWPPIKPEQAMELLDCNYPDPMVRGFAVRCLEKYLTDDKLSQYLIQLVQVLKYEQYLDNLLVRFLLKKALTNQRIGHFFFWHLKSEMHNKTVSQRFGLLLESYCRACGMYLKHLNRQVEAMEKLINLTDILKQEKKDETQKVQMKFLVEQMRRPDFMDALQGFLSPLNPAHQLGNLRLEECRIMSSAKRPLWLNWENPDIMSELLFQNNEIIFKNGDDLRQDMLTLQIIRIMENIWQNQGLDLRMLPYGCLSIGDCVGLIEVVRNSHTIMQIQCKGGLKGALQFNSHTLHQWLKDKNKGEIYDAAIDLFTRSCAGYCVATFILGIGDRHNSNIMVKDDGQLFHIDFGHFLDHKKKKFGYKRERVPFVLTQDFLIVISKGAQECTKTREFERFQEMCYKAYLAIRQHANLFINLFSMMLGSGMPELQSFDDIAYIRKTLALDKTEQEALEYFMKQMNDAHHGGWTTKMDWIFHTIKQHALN
T2 sequence (Q99755 whole entry): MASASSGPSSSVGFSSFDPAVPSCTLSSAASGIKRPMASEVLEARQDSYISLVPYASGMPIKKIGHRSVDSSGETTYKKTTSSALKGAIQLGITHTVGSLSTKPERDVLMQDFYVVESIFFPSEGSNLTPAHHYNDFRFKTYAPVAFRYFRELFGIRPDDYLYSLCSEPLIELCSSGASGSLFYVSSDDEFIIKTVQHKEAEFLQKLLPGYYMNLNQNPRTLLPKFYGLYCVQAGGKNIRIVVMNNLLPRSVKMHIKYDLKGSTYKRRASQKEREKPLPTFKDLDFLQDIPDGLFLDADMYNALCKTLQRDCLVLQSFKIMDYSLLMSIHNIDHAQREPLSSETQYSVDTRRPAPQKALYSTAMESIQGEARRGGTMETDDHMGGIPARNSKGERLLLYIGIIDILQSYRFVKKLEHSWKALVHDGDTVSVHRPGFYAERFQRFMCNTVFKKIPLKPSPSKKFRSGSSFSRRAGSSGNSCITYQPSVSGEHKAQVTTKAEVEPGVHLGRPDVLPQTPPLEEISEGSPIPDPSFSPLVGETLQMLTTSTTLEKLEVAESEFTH
T3 sequence (O60331 whole entry): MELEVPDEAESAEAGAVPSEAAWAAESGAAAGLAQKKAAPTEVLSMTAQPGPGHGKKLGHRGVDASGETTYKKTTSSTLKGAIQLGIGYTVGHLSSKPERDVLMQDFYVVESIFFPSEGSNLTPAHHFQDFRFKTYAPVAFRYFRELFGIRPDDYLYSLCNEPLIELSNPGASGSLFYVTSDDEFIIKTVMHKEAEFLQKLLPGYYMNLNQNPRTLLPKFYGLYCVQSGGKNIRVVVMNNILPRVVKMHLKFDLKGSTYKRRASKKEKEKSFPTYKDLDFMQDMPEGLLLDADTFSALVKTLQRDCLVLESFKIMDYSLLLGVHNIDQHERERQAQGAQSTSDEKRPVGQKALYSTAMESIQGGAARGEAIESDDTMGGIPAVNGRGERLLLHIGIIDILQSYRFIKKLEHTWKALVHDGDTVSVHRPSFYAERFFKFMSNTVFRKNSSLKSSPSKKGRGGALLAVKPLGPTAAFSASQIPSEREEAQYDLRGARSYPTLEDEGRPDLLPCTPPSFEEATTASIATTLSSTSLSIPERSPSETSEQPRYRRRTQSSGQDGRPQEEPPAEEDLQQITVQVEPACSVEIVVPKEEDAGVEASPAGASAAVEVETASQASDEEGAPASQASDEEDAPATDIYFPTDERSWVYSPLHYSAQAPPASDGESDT
Sequence of VEGFR-2 (KDR) (P35968 20-1356, species assumed): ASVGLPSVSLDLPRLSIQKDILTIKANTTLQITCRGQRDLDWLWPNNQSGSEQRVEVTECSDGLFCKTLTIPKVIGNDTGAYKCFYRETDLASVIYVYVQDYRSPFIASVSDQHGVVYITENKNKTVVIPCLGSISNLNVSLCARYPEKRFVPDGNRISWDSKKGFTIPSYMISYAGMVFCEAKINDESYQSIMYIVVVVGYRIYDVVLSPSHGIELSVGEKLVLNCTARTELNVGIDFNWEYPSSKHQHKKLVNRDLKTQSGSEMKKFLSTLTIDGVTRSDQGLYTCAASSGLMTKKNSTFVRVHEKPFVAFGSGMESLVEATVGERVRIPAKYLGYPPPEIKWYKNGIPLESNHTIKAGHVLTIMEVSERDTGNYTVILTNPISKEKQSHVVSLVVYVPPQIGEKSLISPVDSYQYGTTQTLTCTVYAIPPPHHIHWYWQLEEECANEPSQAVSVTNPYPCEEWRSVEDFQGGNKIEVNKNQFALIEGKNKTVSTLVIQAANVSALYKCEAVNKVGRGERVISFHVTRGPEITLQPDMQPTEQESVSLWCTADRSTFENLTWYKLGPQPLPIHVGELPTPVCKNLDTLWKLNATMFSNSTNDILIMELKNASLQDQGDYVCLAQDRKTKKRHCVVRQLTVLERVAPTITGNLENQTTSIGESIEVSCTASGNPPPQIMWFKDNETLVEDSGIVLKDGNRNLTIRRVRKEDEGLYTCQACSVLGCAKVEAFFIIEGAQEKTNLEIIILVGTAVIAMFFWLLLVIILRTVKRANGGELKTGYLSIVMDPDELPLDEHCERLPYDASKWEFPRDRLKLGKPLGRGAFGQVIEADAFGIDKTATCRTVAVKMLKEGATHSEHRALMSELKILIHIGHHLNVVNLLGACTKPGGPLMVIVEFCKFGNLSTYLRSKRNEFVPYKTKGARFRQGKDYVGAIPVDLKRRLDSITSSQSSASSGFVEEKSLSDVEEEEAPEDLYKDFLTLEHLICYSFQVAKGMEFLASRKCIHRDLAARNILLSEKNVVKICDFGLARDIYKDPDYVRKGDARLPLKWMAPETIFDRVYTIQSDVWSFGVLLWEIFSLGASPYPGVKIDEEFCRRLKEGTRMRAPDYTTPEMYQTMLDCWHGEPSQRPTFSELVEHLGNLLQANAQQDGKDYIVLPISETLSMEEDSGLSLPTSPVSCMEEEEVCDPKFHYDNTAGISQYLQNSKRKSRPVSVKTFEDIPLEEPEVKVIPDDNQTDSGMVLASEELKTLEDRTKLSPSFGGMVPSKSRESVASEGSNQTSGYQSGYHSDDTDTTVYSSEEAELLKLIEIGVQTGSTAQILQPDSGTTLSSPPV

CC(C)Cn1c2ccc(Nc3ncccn3)cc2c2c3c(c4c(c21)CCc1nn(C)cc1-4)C(=O)NC3 [ESK981, 13-isobutyl-4-methyl-10-(pyrimidin-2-ylamino)-1,2,4,7,8,13-hexahydro-6H-indazolo[5,4-a]pyrrolo[3,4-c]carbazol-6-one]
cell proliferation by Ki67 IHC ([1]; five days of treatment): dose-dependent reductions | tumor weights ([1]; oral gavage): dose-dependent reductions | tumor growth of VCaP xenografts ([1]; oral gavage, castrated SCID mice, vs vehicle): significant dose-dependent growth inhibiton | cytokines induced (array of 105 cytokines) (VCaP cells): significantly induced only CXCL10 and, to a lesser extent, CCL2 | expression of CXCL10 in the presence of IFNγ [2]: enhance expression of CXCL10 | effect of co-treatment on the anti-PD-1 tumor inhibitory effect (Myc-CaP tumors; 15 mg/kg ESK981 with anti-PD-1, 6 weeks): strongly enhanced | Cd3 mRNA in tumors (Myc-CaP tumors; [3]): upregulated | Cxcl10 mRNA in tumors (Myc-CaP tumors; [3]): upregulated | Cd3 mRNA levels in tumors (Myc-CaP tumors; 15 mg/kg, 30 mg/kg): dose-dependent upregulation | tumor doubling time (progression-free survival) (Myc-CaP tumors; 15 mg/kg, 30 mg/kg): significantly increased tumor doubling time | average Cxcl10 levels in tumors (Myc-CaP tumors; 15 mg/kg, 30 mg/kg, dose-dependent): significantly increased | tumor growth (Myc-CaP tumors; 15 mg/kg, 30 mg/kg, oral gavage 5 days per week, three weeks): dose-dependent growth inhibition | LC3 lipidation in tumors (Myc-CaP tumors; 15 mg/kg, five days of treatment): elevated LC3 lipidation | bioluminescent-negative tumors (Myc-CaP tumors; 30 mg/kg group, day 19): five out of ten | CD3+ T cell trafficking in the tumor microenvironment (Cd3 RNA ISH) (Myc-CaP tumors; single agents): increased | Kd (PIK3CA): > 10 µM | Kd (PIP5K1A): 0.23 µM | Kd (PIP5K1C): 0.21 µM | activity against kinase (VEGFR-2 (KDR)): potent activity
